Results as given in paper PMC6321601 (Molecules, 2018).

What was measured:
[1] = test system: L-O2 human normal liver cells; assay: MTT assay, toxicity against L-O2 normal cells; type: cell-based; details: Homo sapiens, 72 h incubation, mean of three independent experiments
Description: (§1) HepG-2 human hepatocellular carcinoma cells and L-O2 human normal liver cells were maintained in DMEM culture medium supplemented with 10% FBS at 37 °C under a humidified atmosphere with 5% CO2.
(§2) HepG-2 and L-O2 cells in logarithmic growth phase were seeded into a 96-well plate at 5 × 10^3/well/200 µL. After 12 h, compounds at different concentrations were added and incubated for 72 h at 37 °C, 5% CO2. Then, 20 µL MTT (5 mg/mL) was added into each well and incubated for 4 h. The supernatant was discarded, and the precipitate was dissolved with DMSO. The absorbance of the optical density (OD) at 570 nm was detected using a microplate reader and the IC50 was calculated with GraphPad Prism 5.

[2] = test system: HepG-2 human hepatocellular carcinoma cells; assay: MTT assay, proliferation of HepG-2 cells; type: cell-based; details: Homo sapiens, HepG2, 72 h incubation, mean of three independent experiments
Description: as §1, §2

Row | SMILES | IC50 [1] | IC50 [2]
1 | CC(=O)OC(C)(C)/C=C/C(=O)[C@](C)(O)C1[C@H](OC(=O)/C=C/c2ccc(C#N)cc2)C[C@@]2(C)C3CC=C4C(C[C@H](O)C(=O)C4(C)C)[C@]3(C)C(=O)C[C@]12C (stereo partly drawn) [Compound 3p, (2S,9R,13R,14S,16R)-17-((R,E)-6-Acetoxy-2-hydroxy-6-methyl-3-oxohept-4-en-2-yl)-2-hydroxy-4,4,9,13,14-pentamethyl-3,11-dioxo-2,3,4,7,8,9,10,11,12,13,14,15,16,17-tetradecahydro-1H-cyclopenta[a]phenanthren-16-yl (E)-3-(4-cyanophenyl)acrylate] | 1.47 ± 0.36 µM | 2.34 ± 0.91 µM
2 | COc1cc(/C=C/C(=O)O[C@@H]2C[C@@]3(C)C4CC=C5C(C[C@H](O)C(=O)C5(C)C)[C@]4(C)C(=O)C[C@]3(C)C2[C@@](C)(O)C(=O)/C=C/C(C)(C)OC(C)=O)cc(OC)c1 (stereo partly drawn) [Compound 3q, (2S,9R,13R,14S,16R)-17-((R,E)-6-Acetoxy-2-hydroxy-6-methyl-3-oxohept-4-en-2-yl)-2-hydroxy-4,4,9,13,14-pentamethyl-3,11-dioxo-2,3,4,7,8,9,10,11,12,13,14,15,16,17-tetradecahydro-1H-cyclopenta[a]phenanthren-16-yl (E)-3-(3,5-dimethoxyphenyl)acrylate] | 5.25 ± 1.63 µM | 3.85 ± 0.63 µM
3 | CC(=O)OC(C)(C)/C=C/C(=O)[C@](C)(O)C1[C@H](OC(=O)/C=C/c2ccccc2)C[C@@]2(C)C3CC=C4C(C[C@H](OC(=O)/C=C/c5ccccc5)C(=O)C4(C)C)[C@]3(C)C(=O)C[C@]12C (stereo partly drawn) [Compound 4, (2S,9R,13R,14S,16R)-17-((R,E)-6-Acetoxy-2-hydroxy-6-methyl-3-oxohept-4-en-2-yl)-4,4,9,13,14-pentamethyl-3,11-dioxo-2,3,4,7,8,9,10,11,12,13,14,15,16,17-tetradecahydro-1H-cyclopenta[a]phenanthrene-2,16-diyl (2E,2′E)-bis(3-phenylacrylate)] | > 20 µM | > 20 µM
4 | CC(=O)OC(C)(C)C=CC(=O)C(C)(O)C1C(OC(=O)CCC(=O)NCCOc2no[n+]([O-])c2S(=O)(=O)c2ccccc2)CC2(C)C3CC=C4C(CC(O)C(=O)C4(C)C)C3(C)C(=O)CC12C [Compound 9a, 3-((l1-oxidanyl)(oxo)(phenyl)-l5-sulfanyl)-4-(2-(4-(((9R,13R,14S,16R)-17-((R,E)-6-acetoxy-2-hydroxy-6-methyl-3-oxohept-4-en-2-yl)-2-Hydroxy-4,4,9,13,14-pentamethyl-3,11-dioxo-2,3,4,7,8,9,10,11,12,13,14,15,16,17-tetradecahydro-1H-cyclopenta[a]phenanthren-16-yl)oxy)-4-oxobutanamido)ethoxy)-1,2,5-oxadiazole 2-oxide] | 0.69 ± 0.43 µM | 0.46 ± 0.14 µM
5 | CC(=O)OC(C)(C)/C=C/C(=O)[C@](C)(O)C1[C@H](OC(=O)CCC(=O)NCCCOc2no[n+]([O-])c2S(=O)(=O)c2ccccc2)C[C@@]2(C)C3CC=C4C(CC(O)C(=O)C4(C)C)[C@]3(C)C(=O)C[C@]12C (stereo partly drawn) [Compound 9b, 4-(3-(4-(((9R,13R,14S,16R)-17-((R,E)-6-Acetoxy-2-hydroxy-6-methyl-3-oxohept-4-en-2-yl)-2-hydroxy-4,4,9,13,14-pentamethyl-3,11-dioxo-2,3,4,7,8,9,10,11,12,13,14,15,16,17-tetradecahydro-1H-cyclopenta[a]phenanthren-16-yl)oxy)-4-oxobutanamido)propoxy)-3-(phenylsulfonyl)-1,2,5-oxadiazole 2-oxide] | 0.8 ± 0.4 µM | 0.53 ± 0.01 µM
6 | CC(=O)OC(C)(C)/C=C/C(=O)[C@](C)(O)C1[C@H](OC(=O)CCC(=O)N2CCN(CCOc3no[n+]([O-])c3S(=O)(=O)c3ccccc3)CC2)C[C@@]2(C)C3CC=C4C(CC(O)C(=O)C4(C)C)[C@]3(C)C(=O)C[C@]12C (stereo partly drawn) [Compound 9c, 4-(2-(4-(4-(((9R,13R,14S,16R)-17-((R,E)-6-Acetoxy-2-hydroxy-6-methyl-3-oxohept-4-en-2-yl)-2-hydroxy-4,4,9,13,14-pentamethyl-3,11-dioxo-2,3,4,7,8,9,10,11,12,13,14,15,16,17-tetradecahydro-1H-cyclopenta[a]phenanthren-16-yl)oxy)-4-oxobutanoyl)piperazin-1-yl)ethoxy)-3-(phenylsulfonyl)-1,2,5-oxadiazole 2-oxide] | 2.61 ± 1.77 µM | 0.92 ± 0.16 µM
7 | CC(=O)OC(C)(C)/C=C/C(=O)[C@](C)(O)C1[C@H](OC(=O)CCC(=O)OCCOc2no[n+]([O-])c2S(=O)(=O)c2ccccc2)C[C@@]2(C)C3CC=C4C(CC(O)C(=O)C4(C)C)[C@]3(C)C(=O)C[C@]12C (stereo partly drawn) [Compound 10a, 4-(2-((4-(((9R,13R,14S,16R)-17-((R,E)-6-Acetoxy-2-hydroxy-6-methyl-3-oxohept-4-en-2-yl)-2-hydroxy-4,4,9,13,14-pentamethyl-3,11-dioxo-2,3,4,7,8,9,10,11,12,13,14,15,16,17-tetradecahydro-1H-cyclopenta[a]phenanthren-16-yl)oxy)-4-oxobutanoyl)oxy)ethoxy)-3-(phenylsulfonyl)-1,2,5-oxadiazole 2-oxide] | 2.04 ± 0.67 µM | 0.82 ± 0.33 µM
8 | CC(=O)OC(C)(C)/C=C/C(=O)[C@](C)(O)C1[C@H](OC(=O)CCC(=O)OCCCCOc2no[n+]([O-])c2S(=O)(=O)c2ccccc2)C[C@@]2(C)C3CC=C4C(CC(O)C(=O)C4(C)C)[C@]3(C)C(=O)C[C@]12C (stereo partly drawn) [Compound 10c, 4-(4-((4-(((9R,13R,14S,16R)-17-((R,E)-6-Acetoxy-2-hydroxy-6-methyl-3-oxohept-4-en-2-yl)-2-hydroxy-4,4,9,13,14-pentamethyl-3,11-dioxo-2,3,4,7,8,9,10,11,12,13,14,15,16,17-tetradecahydro-1H-cyclopenta[a]phenanthren-16-yl)oxy)-4-oxobutanoyl)oxy)butoxy)-3-(phenylsulfonyl)-1,2,5-oxadiazole 2-oxide] | 2.1 ± 1.41 µM | 0.52 ± 0.09 µM
9 | CC(=O)OC(C)(C)/C=C/C(=O)[C@](C)(O)C1[C@H](OC(=O)CCC(=O)OCCCCCOc2no[n+]([O-])c2S(=O)(=O)c2ccccc2)C[C@@]2(C)C3CC=C4C(CC(O)C(=O)C4(C)C)[C@]3(C)C(=O)C[C@]12C (stereo partly drawn) [Compound 10d, 4-((5-((4-(((9R,13R,14S,16R)-17-((R,E)-6-Acetoxy-2-hydroxy-6-methyl-3-oxohept-4-en-2-yl)-2-hydroxy-4,4,9,13,14-pentamethyl-3,11-dioxo-2,3,4,7,8,9,10,11,12,13,14,15,16,17-tetradecahydro-1H-cyclopenta[a]phenanthren-16-yl)oxy)-4-oxobutanoyl)oxy)pentyl)oxy)-3-(phenylsulfonyl)-1,2,5-oxadiazole 2-oxide] | 2.62 ± 0.52 µM | 0.64 ± 0.26 µM
10 | CC(=O)OC(C)(C)/C=C/C(=O)[C@](C)(O)C1[C@H](OC(=O)CCC(=O)OCCCCCCOc2no[n+]([O-])c2S(=O)(=O)c2ccccc2)C[C@@]2(C)C3CC=C4C(CC(O)C(=O)C4(C)C)[C@]3(C)C(=O)C[C@]12C (stereo partly drawn) [Compound 10e, 4-((6-((4-(((9R,13R,14S,16R)-17-((R,E)-6-Acetoxy-2-hydroxy-6-methyl-3-oxohept-4-en-2-yl)-2-hydroxy-4,4,9,13,14-pentamethyl-3,11-dioxo-2,3,4,7,8,9,10,11,12,13,14,15,16,17-tetradecahydro-1H-cyclopenta[a]phenanthren-16-yl)oxy)-4-oxobutanoyl)oxy)hexyl)oxy)-3-(phenylsulfonyl)-1,2,5-oxadiazole 2-oxide] | 3.21 ± 0.09 µM | 1.15 ± 0.24 µM
11 | CC(=O)OC(C)(C)/C=C/C(=O)[C@](C)(O)C1[C@H](OC(=O)CCC(=O)OCCCCCCCOc2no[n+]([O-])c2S(=O)(=O)c2ccccc2)C[C@@]2(C)C3CC=C4C(CC(O)C(=O)C4(C)C)[C@]3(C)C(=O)C[C@]12C (stereo partly drawn) [Compound 10f, 4-((7-((4-(((9R,13R,14S,16R)-17-((R,E)-6-Acetoxy-2-hydroxy-6-methyl-3-oxohept-4-en-2-yl)-2-hydroxy-4,4,9,13,14-pentamethyl-3,11-dioxo-2,3,4,7,8,9,10,11,12,13,14,15,16,17-tetradecahydro-1H-cyclopenta[a]phenanthren-16-yl)oxy)-4-oxobutanoyl)oxy)heptyl)oxy)-3-(phenylsulfonyl)-1,2,5-oxadiazole 2-oxide] | 3.25 ± 0.4 µM | 0.83 ± 0.38 µM
12 | CC(=O)OC(C)(C)/C=C/C(=O)[C@](C)(O)C1[C@H](OC(=O)CCC(=O)OCCCCCCCCOc2no[n+]([O-])c2S(=O)(=O)c2ccccc2)C[C@@]2(C)C3CC=C4C(CC(O)C(=O)C4(C)C)[C@]3(C)C(=O)C[C@]12C (stereo partly drawn) [Compound 10g, 4-((8-((4-(((9R,13R,14S,16R)-17-((R,E)-6-Acetoxy-2-hydroxy-6-methyl-3-oxohept-4-en-2-yl)-2-hydroxy-4,4,9,13,14-pentamethyl-3,11-dioxo-2,3,4,7,8,9,10,11,12,13,14,15,16,17-tetradecahydro-1H-cyclopenta[a]phenanthren-16-yl)oxy)-4-oxobutanoyl)oxy)octyl)oxy)-3-(phenylsulfonyl)-1,2,5-oxadiazole 2-oxide] | 4.29 ± 0.66 µM | 1.19 ± 0.55 µM
13 | CC(=O)OC(C)(C)/C=C/C(=O)[C@](C)(O)C1[C@H](OC(=O)CCC(=O)OCCCCCCCCCOc2no[n+]([O-])c2S(=O)(=O)c2ccccc2)C[C@@]2(C)C3CC=C4C(CC(O)C(=O)C4(C)C)[C@]3(C)C(=O)C[C@]12C (stereo partly drawn) [Compound 10h, 4-((9-((4-(((9R,13R,14S,16R)-17-((R,E)-6-Acetoxy-2-hydroxy-6-methyl-3-oxohept-4-en-2-yl)-2-hydroxy-4,4,9,13,14-pentamethyl-3,11-dioxo-2,3,4,7,8,9,10,11,12,13,14,15,16,17-tetradecahydro-1H-cyclopenta[a]phenanthren-16-yl)oxy)-4-oxobutanoyl)oxy)nonyl)oxy)-3-(phenylsulfonyl)-1,2,5-oxadiazole 2-oxide] | 1.17 ± 0.08 µM | 1.15 ± 0.24 µM
